# Data taken from patent US12403132B2, “Methods of treating bone marrow failure syndromes and compositions for use in the same” (The Board of Trustees of the Leland Stanford Junior …, priority 2020, dated 2025).
# How the values were obtained:
# NLK [1] = target: T1, NLK (Homo sapiens, UniProt Q9UBE8); experiment: Kinase Profiling of SD208; format: biochemical; details: 10 μM; data not shown
# T1 sequence (Q9UBE8 1-527): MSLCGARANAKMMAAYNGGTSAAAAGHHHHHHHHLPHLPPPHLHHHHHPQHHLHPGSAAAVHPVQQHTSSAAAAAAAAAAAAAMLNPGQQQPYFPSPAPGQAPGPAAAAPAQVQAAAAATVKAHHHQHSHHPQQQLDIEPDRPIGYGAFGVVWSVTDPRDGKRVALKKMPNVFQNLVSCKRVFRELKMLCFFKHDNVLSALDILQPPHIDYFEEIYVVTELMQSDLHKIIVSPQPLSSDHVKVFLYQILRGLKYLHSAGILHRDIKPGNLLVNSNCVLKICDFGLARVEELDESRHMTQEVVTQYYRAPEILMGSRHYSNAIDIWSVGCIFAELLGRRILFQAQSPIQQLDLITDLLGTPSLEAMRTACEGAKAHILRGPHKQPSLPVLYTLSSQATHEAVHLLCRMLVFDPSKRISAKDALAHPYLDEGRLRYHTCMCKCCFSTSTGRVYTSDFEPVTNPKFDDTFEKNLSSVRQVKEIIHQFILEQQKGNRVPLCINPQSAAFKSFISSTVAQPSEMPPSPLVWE
# NLK [2] = target: T1, NLK; experiment: Kinase assay of NLK immunopurified from treated differentiating human progenitors; format: cell-based; parameters: 5000 cells per treatment were lysed and immunopurified NLK was subjected to in vitro kinase assay; endogenous in cells; host or cells: human cord blood CD34+ HSPCs transduced with shLuc / shRPS19 / shRPL11, differentiating in erythroid medium; details: NLK from ginsenoside Rb1-treated RPS19-insufficient progenitors
# [3] = tested on: miR-26a and other miRNAs (let-7, miR-30, miR-181, miR-199, miR-144); experiment: miRNA expression by qRT-PCR in differentiating human CD34+ progenitors; format: cell-based
# Experimental: FIG. 14. Metformin-mediated upregulation of miR-26a in human progenitors suppresses NLK expression. (Panel A) Human CD34+ (upper) and murine Lin-Kit+ (lower) progenitors were differentiated for 8 days in the presence or absence of metformin and the levels of indicated miRNAs were assessed by qRT-PCR. (Panel B) K562 cells stably expressing the luciferase gene coupled to the NLK 3′UTR were mock transfected, transfected with indicated miRNA mimetics, or treated with metformin, and cultured in the presence or absence of metformin for 72 hrs. After lysis, luciferase activity was determined and endogenous NLK and GAPDH protein expression was analyzed by Western blot. (Panel C) K562 cells were mock transfected, or transfected with either miR-34 or miR-26 sponges, prior to being left untreated or treated with metformin for 72 hrs. Lysed cells were subjected to luciferase assay and western blotting to examine NLK and GAPDH protein expression. […] Statistics: two-tailed Student's t test, significant *P<0.05
# FIG. 15. MiR-26a mimetic substitutes for metformin in improving erythropoiesis in RPS19-insufficiency. (Panel A) Human CD34+ cells were transduced with shRNA against a control (shLuc) or RPS19 (shRPS19) and transfected with a miR-26a mimetic or a mock control. After differentiation in the absence or presence of metformin for 12 days, cells were counted and the percentage of CD235+ erythroblasts determined by flow cytometry. The calculated CD235+ population of each treatment group is represented as a percentage of the untreated control group (upper). In parallel, qRT-PCR was performed to determine mRNA expression of NLK (middle) and miR-26a (lower). (Panel B) Lin-Kit+ progenitors for RPL11+/+ and RPL+/lox mice were mock transfected or transfected with miR-26a mimetic and differentiated for 8 days. Cells were subjected to counting and the percentage of Ter119+ erythroblasts determined (upper) in conjunction with qRT-PCR examining NLK (middle) and miR-26a (lower) mRNA expression. […] Statistics: two-tailed Student's t test, significant *P<0.05
# MessengerRNA was quantified as described (5). MicroRNA was quantified using TaqMan® Small RNA Assays (Applied Biosystems) as per manufacturer's directions and normalized to snoRNA.
# human NLK 3′UTR = experiment: Luciferase fused to human NLK 3′UTR in K562 cells; format: cell-based
# Experimental: FIG. 12. NLK 3′UTR facilitates metformin-mediated NLK suppression. (Panel A) K562 cells stabling expressing luciferase alone (top portion), luciferase expressed behind a minimal promoter and the NLK proximal promoter (2nd portion), luciferase immediately upstream of the human NLK 3′UTR (3rd portion) or luciferase with the SATB1 3′UTR (bottom portion) were grown in the presence of 0, 0.5, 5.0 or 50.0 mM of metformin for 72 hrs. Cell were pelleted and either processed for luciferase assay (left portion) or western blot analysis of endogenous NLK (upper right portion) or GAPDH (lower right portion). (Panel B) Luciferase immediately upstream of the human (upper), murine (middle) and zebrafish (lower) NLK 3′UTR were transiently transfected into human K562 (left) and cultured with indicated concentrations of metformin for 72 hrs. Lysates were assessed for luciferase activity and endogenous NLK and GAPDH protein expression by Western blotting. […] Statistics: two-tailed Student's t test, significant *P<0.05
# FIG. 14. Metformin-mediated upregulation of miR-26a in human progenitors suppresses NLK expression. (Panel A) Human CD34+ (upper) and murine Lin-Kit+ (lower) progenitors were differentiated for 8 days in the presence or absence of metformin and the levels of indicated miRNAs were assessed by qRT-PCR. […] After lysis, luciferase activity was determined and endogenous NLK and GAPDH protein expression was analyzed by Western blot. […]
# The NLK minimal promoter (1019 5′ nucleotides) and or NLK 3′UTR (1885 3′ nucleotides) were cloned upstream, or downstream respectively, of firefly luciferase and transfected into K562 cells. Transfection efficiency was normalized by RFP expression and firefly luciferase activity determined by Luciferase Assay Reagent II (LAR II) from Dual-Luciferase® Reporter (DLR™) Assay System (Promega). Luminescence was assessed using a Synergy™ H1 hybrid multi-mode microplate reader (BioTek®). […]
smiles,measurement,setting,value
Fc1ccc(Cl)cc1-c1nc(Nc2ccncc2)c2nccnc2n1 [SD208],NLK kinase activity inhibited,NLK [1],96.8%
CC(C)=CCC[C@](C)(O[C@@H]1O[C@H](CO[C@@H]2O[C@H](CO)[C@@H](O)[C@H](O)[C@H]2O)[C@@H](O)[C@H](O)[C@H]1O)[C@H]1CC[C@]2(C)[C@@H]1[C@H](O)C[C@@H]1[C@@]3(C)CC[C@H](O[C@@H]4O[C@H](CO)[C@@H](O)[C@H](O)[C@H]4O[C@@H]4O[C@H](CO)[C@@H](O)[C@H](O)[C@H]4O)C(C)(C)[C@@H]3CC[C@]12C [ginsenoside Rb1],reduced NLK kinase activity,NLK [2],44.8%
CN(C)C(=N)N=C(N)N [metformin],miR-26a level,[3]; RPS19-insufficiency,2.5 fold
same,miR-26a level,[3]; control,2.4 fold
same,upregulation of miR-26a,"[3]; human CD34+ progenitors in erythroid media, metformin, 8 days",2.4 fold
same,"expression of other miRNA species (let-7, miR-30, miR-181, miR-199, miR-144)","[3]; human CD34+ progenitors, metformin",did not alter
same,reduction of luciferase activity (wild-type human NLK 3′UTR),"human NLK 3′UTR; K562, miRNA mimetics or metformin, 72 hrs",72.5%
same,decrease of luciferase (NLK 3′UTR fusion),"human NLK 3′UTR; stable K562, 50 mM metformin, 72 hrs",67.5%
same,"decrease of luciferase activity, human 3′UTR","human NLK 3′UTR; transient transfection in K562, metformin 72 hrs",65.4%
